Data: PubChem BioAssay (NCI)
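The compound was tested at five concentrations on cells cultured in 96-well plates, with a 48-hour exposure period. GI50 = concentration required for 50% inhibition of growth. TGI: concentration producing complete growth inhibition.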

Columns and labels:
Test in all cases: inhibition of tumour cell growth, NCI panel, 48 h; in the data active means GI50 below about 0.43 µM; inactive means the rest
SK-MEL-28 melanoma = tested on: SK-MEL-28 melanoma
HCT-15 colon = tested on: HCT-15 colon
NCI-H23 lung = tested on: NCI-H23 lung
NCI-H522 lung = tested on: NCI-H522 lung
A549 NSCLC = tested on: A549 NSCLC
ACHN renal = tested on: ACHN renal
SK-OV-3 ovarian = tested on: SK-OV-3 ovarian
HOP-92 NSCLC = tested on: HOP-92 NSCLC
MALME-3M melanoma = tested on: MALME-3M melanoma
CAKI-1 renal = tested on: CAKI-1 renal
SNB-75 CNS = tested on: SNB-75 CNS
SN12C renal = tested on: SN12C renal
EKVX NSCLC = tested on: EKVX NSCLC
LOX IMVI melanoma = tested on: LOX IMVI melanoma
HT29 colon = tested on: HT29 colon
SF-268 CNS = tested on: SF-268 CNS
PC-3 prostate = tested on: PC-3 prostate
HCC-2998 colon = tested on: HCC-2998 colon
TK-10 renal = tested on: TK-10 renal
BT-549 breast = tested on: BT-549 breast
KM12 colon = tested on: KM12 colon
NCI-H226 lung = tested on: NCI-H226 lung
OVCAR-3 ovarian = tested on: OVCAR-3 ovarian
OVCAR-5 ovarian = tested on: OVCAR-5 ovarian
UACC-257 melanoma = tested on: UACC-257 melanoma
UO-31 renal = tested on: UO-31 renal
T-47D breast = tested on: T-47D breast
SNB-19 CNS = tested on: SNB-19 CNS
OVCAR-4 ovarian = tested on: OVCAR-4 ovarian
HCT-116 colon = tested on: HCT-116 colon
HS 578T breast = tested on: HS 578T breast
MDA-MB-231 breast = tested on: MDA-MB-231 breast
HL-60(TB) leukemia = tested on: HL-60(TB) leukemia
SK-MEL-5 melanoma = tested on: SK-MEL-5 melanoma
786-0 renal = tested on: 786-0 renal
RPMI-8226 leukemia = tested on: RPMI-8226 leukemia
SF-539 CNS = tested on: SF-539 CNS
SR leukemia = tested on: SR leukemia
MCF7 breast = tested on: MCF7 breast
COLO 205 colon = tested on: COLO 205 colon
M14 melanoma = tested on: M14 melanoma
RXF 393 renal = tested on: RXF 393 renal
SW-620 colon = tested on: SW-620 colon
SF-295 CNS = tested on: SF-295 CNS
A498 renal = tested on: A498 renal
U251 CNS = tested on: U251 CNS
IGROV1 ovarian = tested on: IGROV1 ovarian
K-562 leukemia = tested on: K-562 leukemia
NCI-H460 lung = tested on: NCI-H460 lung
MOLT-4 leukemia = tested on: MOLT-4 leukemia
MDA-MB-435 = tested on: MDA-MB-435
NCI/ADR-RES ovarian = tested on: NCI/ADR-RES ovarian
SK-MEL-2 melanoma = tested on: SK-MEL-2 melanoma
UACC-62 melanoma = tested on: UACC-62 melanoma
OVCAR-8 ovarian = tested on: OVCAR-8 ovarian
CCRF-CEM leukemia = tested on: CCRF-CEM leukemia
HOP-62 NSCLC = tested on: HOP-62 NSCLC
DU-145 prostate = tested on: DU-145 prostate

CN1CCC(=C(c2ccc(Cl)cc2)c2ccccn2)CC1
> 100 µM: TGI (SK-MEL-28 melanoma) | TGI (HCT-15 colon) | TGI (NCI-H23 lung) | TGI (NCI-H522 lung) | TGI (A549 NSCLC) | TGI (ACHN renal) | TGI (SK-OV-3 ovarian) | TGI (HOP-92 NSCLC) | TGI (MALME-3M melanoma) | TGI (CAKI-1 renal) | TGI (SNB-75 CNS) | TGI (SN12C renal) | TGI (EKVX NSCLC) | TGI (LOX IMVI melanoma) | TGI (HT29 colon) | TGI (SF-268 CNS) | TGI (PC-3 prostate) | TGI (HCC-2998 colon) | TGI (TK-10 renal) | TGI (BT-549 breast) | TGI (KM12 colon) | TGI (NCI-H226 lung) | TGI (OVCAR-3 ovarian) | TGI (OVCAR-5 ovarian) | TGI (UO-31 renal) | TGI (T-47D breast) | TGI (SNB-19 CNS) | TGI (OVCAR-4 ovarian) | TGI (HCT-116 colon) | TGI (HS 578T breast) | TGI (MDA-MB-231 breast) | TGI (HL-60(TB) leukemia) | TGI (SK-MEL-5 melanoma) | TGI (786-0 renal) | TGI (RPMI-8226 leukemia) | TGI (SF-539 CNS) | TGI (SR leukemia) | TGI (MCF7 breast) | TGI (COLO 205 colon) | TGI (RXF 393 renal) | TGI (SW-620 colon) | TGI (SF-295 CNS) | TGI (A498 renal) | TGI (U251 CNS) | TGI (IGROV1 ovarian) | TGI (K-562 leukemia) | TGI (NCI-H460 lung) | TGI (MOLT-4 leukemia) | TGI (MDA-MB-435) | TGI (NCI/ADR-RES ovarian) | TGI (SK-MEL-2 melanoma) | TGI (UACC-62 melanoma) | TGI (OVCAR-8 ovarian) | TGI (CCRF-CEM leukemia) | TGI (HOP-62 NSCLC) | TGI (DU-145 prostate)
inactive: GI50 (SK-MEL-28 melanoma) 86.1 µM | GI50 (HCT-15 colon) > 100 µM | GI50 (NCI-H23 lung) > 100 µM | GI50 (NCI-H522 lung) 95.5 µM | GI50 (A549 NSCLC) > 100 µM | GI50 (ACHN renal) > 100 µM | GI50 (SK-OV-3 ovarian) 61.9 µM | GI50 (HOP-92 NSCLC) 16.7 µM | GI50 (MALME-3M melanoma) 40.9 µM | GI50 (CAKI-1 renal) > 100 µM | GI50 (SNB-75 CNS) 31 µM | GI50 (SN12C renal) > 100 µM | GI50 (EKVX NSCLC) > 100 µM | GI50 (LOX IMVI melanoma) 56.7 µM | GI50 (HT29 colon) 78.8 µM | GI50 (SF-268 CNS) > 100 µM | GI50 (PC-3 prostate) 80.5 µM | GI50 (HCC-2998 colon) > 100 µM | GI50 (TK-10 renal) > 100 µM | GI50 (BT-549 breast) 79.8 µM | GI50 (KM12 colon) > 100 µM | GI50 (NCI-H226 lung) 90.2 µM | GI50 (OVCAR-3 ovarian) > 100 µM | GI50 (OVCAR-5 ovarian) > 100 µM | GI50 (UACC-257 melanoma) 21.5 µM | GI50 (UO-31 renal) 18.5 µM | GI50 (T-47D breast) > 100 µM | GI50 (SNB-19 CNS) > 100 µM | GI50 (OVCAR-4 ovarian) > 100 µM | GI50 (HCT-116 colon) 66.5 µM | GI50 (HS 578T breast) 44.9 µM | GI50 (MDA-MB-231 breast) 34.5 µM | GI50 (HL-60(TB) leukemia) 58.9 µM | GI50 (SK-MEL-5 melanoma) 50.7 µM | GI50 (786-0 renal) > 100 µM | GI50 (RPMI-8226 leukemia) > 100 µM | GI50 (SF-539 CNS) 85.1 µM | GI50 (SR leukemia) > 100 µM | GI50 (MCF7 breast) > 100 µM | GI50 (COLO 205 colon) 31.7 µM | GI50 (M14 melanoma) 19.2 µM | GI50 (RXF 393 renal) 54.5 µM | GI50 (SW-620 colon) > 100 µM | GI50 (SF-295 CNS) 37.6 µM | GI50 (A498 renal) 45.8 µM | GI50 (U251 CNS) > 100 µM | GI50 (IGROV1 ovarian) 78.7 µM | GI50 (K-562 leukemia) 74.7 µM | GI50 (NCI-H460 lung) > 100 µM | GI50 (MOLT-4 leukemia) > 100 µM | GI50 (MDA-MB-435) 40.7 µM | GI50 (NCI/ADR-RES ovarian) > 100 µM | GI50 (SK-MEL-2 melanoma) > 100 µM | GI50 (UACC-62 melanoma) 33.3 µM | GI50 (OVCAR-8 ovarian) > 100 µM | GI50 (CCRF-CEM leukemia) 4.37 µM | GI50 (HOP-62 NSCLC) > 100 µM | GI50 (DU-145 prostate) > 100 µM
38.7 µM: TGI (M14 melanoma)
45.8 µM: TGI (UACC-257 melanoma)
